In patent publication US7781428B2 (Pfizer Inc., priority 2006, dated 2010):

Target: T1, mineralocorticoid receptor (MR) (Homo sapiens, UniProt P08235)
T1 construct: expressed in transfected cells; host or cells: Huh7 (human liver cells)
T1 sequence (P08235 726-964 limits assumed): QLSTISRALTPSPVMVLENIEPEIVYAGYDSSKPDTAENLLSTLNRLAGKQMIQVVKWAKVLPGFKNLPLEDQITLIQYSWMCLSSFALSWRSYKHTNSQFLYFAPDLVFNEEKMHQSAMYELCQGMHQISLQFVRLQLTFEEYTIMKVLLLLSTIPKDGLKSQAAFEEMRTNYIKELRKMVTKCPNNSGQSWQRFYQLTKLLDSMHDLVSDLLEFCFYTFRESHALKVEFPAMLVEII
Assay: Cell-based Gal4 response element-controlled luciferase reporter assay (MR antagonism)
Conditions: Huh7 human liver cells transfected with Gal4 DBD-MR LBD fusion and luciferase reporter; block of agonist-induced activation; overnight incubation
From the text: Method 1: Cell-based Gal4 Response Element-controlled Luciferase Reporter Assay
An in vitro assay can be used to evaluate mineralocorticoid receptor (MR) antagonism by a test compound. […] An agonist of the receptor can bind to and activate the receptor LBD, which activate the expression of the Gal4 response element containing luciferase reporter gene. Antagonists can compete for binding to the receptor LBDs and decrease the transcription activity of the reporter gene. Measurement of luciferase activity allows quantitative determinations of the reporter transcription in the presence of either agonists or agonists and antagonists in combination. β-galactosidase activity, which is unaffected by ligand, is used to normalize the transfection efficiency in the cell population.
Huh7 cells were plated in RPMI1640+10% fetal bovine serum (Invitrogen Corporation, San Diego, Calif.), at 10,000 cells per well in 96-well tissue culture dishes for approximately 24 hours. Cells were then transfected using FuGENE™ 6 Transfection Reagent according to manufacturers' instructions (Roche Molecular Biochemicals, Indianapolis, Ind.). Approximately 20 hours after transfection, media were removed. Cells were washed once with PBS and treated (n=6/group) with agonist for each receptor (all chemicals from Sigma, St. Louis, Mo.), and with compounds. Agonist concentrations represent 70-80% of full activation of each receptor.
Compounds were dissolved in DMSO at 10 mM and diluted to final concentrations in phenol red-free media that contained 10% charcoal- and dextran-stripped serum (Life Technologies, Gathersburg, Md.). Following overnight incubation (18-20 hours) with compounds, the medium was removed and replaced with 100 μL per well of PBS and 100 μL of Steady-Glo™ lysis buffer with luciferase substrate (Promega Corporation, Madison, Wis.). After a 30-minute incubation to completely lyse the cells, 100 μL of the lysate was transferred to a black, Dynatech Microfluor assay plates (Dynex Corporation, Chantilly, Va.) to measure luciferase activity. The plate was sealed with TopSeal self-adhesive film, dark-adapted for 5 minutes, then counted in a TopCount Plate Reader (Packard Instrument Company, Meriden, Conn.) in single photon counting mode. The remaining lysate was used for determination of β-galactosidase activity. In a clear 96-well assay plate, 100 μL of cell lysate was added to 100 μL β-galactosidase assay buffer per well. The assay buffer consisted of 60 mM Na2HPO4, 40 mM NaH2PO4, 10 mM KCl, 1 mM MgSO4, 50 mM β-mercaptoethanol, and 2.5 mg/mL ONPG, the latter two reagents were added just prior to assay (all chemicals from Sigma). The reaction was allowed to proceed until a distinct yellow color developed. Reactions were stopped by the addition of 100 μL per well 1 M Na2CO3 and plates were read at 420 nm in Victor-2 (Perkin Elmer Life Sciences, Boston, Mass.). Values (relative luciferase activity) for each sample were expressed as a ratio of luciferase activity to OD420β-galactosidase activity measured in arbitrary units for each well. […] “b” is the slope, “c” is the IC50 or EC50. “x” is the concentration of the compound and “y” the activity at that concentration.

Compound | IC50 [nM]
CCOC(=O)c1ccc2c(c1)CCC1C2=NN(c2ccc(C#N)c(Cl)c2)C1c1ccc(F)cc1 (stereo not drawn) [Example 1, ethyl 2-(3-chloro-4-cyanophenyl)-3-(4-fluorophenyl)-3,3a,4,5-tetrahydro-2H-benzo[g]indazole-7-carboxylate] | 1070
N#Cc1ccc(N2N=C3c4ccc(C(=O)O)cc4CC[C@@H]3[C@@H]2c2ccc(F)cc2)cc1 [Example 11, (3R,3aR)-2-(4-cyanophenyl)-3-(4-fluorophenyl)-3,3a,4,5-tetrahydro-2H-benzo[g]indazole-7-carboxylic acid] | 205
O=C(O)c1ccc2c(c1)CCC1C2=NN(c2ccc3c(c2)CCNC3=O)C1c1ccc(F)cc1 (racemic) [Example 13, 3-(4-fluorophenyl)-2-(1-oxo-1,2,3,4-tetrahydroisoquinolin-6-yl)-3,3a,4,5-tetrahydro-2H-benzo[g]indazole-7-carboxylic acid] | 535
Cc1ccc([C@H]2[C@H]3CCc4cc(C(=O)O)ccc4C3=NN2c2ccc(C#N)c(Cl)c2)o1 [Example 40, (3R,3aR)-2-(3-chloro-4-cyanophenyl)-3-(5-methyl-2-furyl)-3,3a,4,5-tetrahydro-2H-benzo[g]indazole-7-carboxylic acid] | 6
N#Cc1ccc(N2N=C3c4ccc(C(=O)O)cc4OC[C@@H]3[C@@H]2c2ccc(F)cc2)cc1Cl [Example 56, (3R,3aR)-2-(3-chloro-4-cyanophenyl)-3-(4-fluorophenyl)-2,3,3a,4-tetrahydrochromeno[4,3-c]pyrazole-7-carboxylic acid] | 302
N#Cc1ccc(N2N=C3c4ccc(C(=O)O)cc4OCC3C2c2ccc(F)cc2)cc1Cl (racemic) [Example 55, 2-(3-chloro-4-cyanophenyl)-3-(4-fluorophenyl)-2,3,3a,4-tetrahydrochromeno[4,3-c]pyrazole-7-carboxylic acid] | 849
N#Cc1ccc(N2N=C3c4ccc(C(=O)O)cc4CCC3C2C2CCOC2)cc1Cl (racemic) [Example 34, 2-(3-chloro-4-cyanophenyl)-3-((R)-tetrahydrofuran-3-yl)-3,3a,4,5-tetrahydro-2H-benzo[g]indazole-7-carboxylic acid and 2-(3-chloro-4-cyanophenyl)-3-((S)-tetrahydrofuran-3-yl)-3,3a,4,5-tetrahydro-2H-benzo[g]indazole-7-carboxylic acid] | 720
N#Cc1ccc(N2N=C3c4ccc(C(=O)O)cc4CCC3C2C2=CCCC2)cc1 (racemic) [Example 50, 2-(4-cyanophenyl)-3-cyclopent-1-en-1-yl-3,3a,4,5-tetrahydro-2H-benzo[g]indazole-7-carboxylic acid] | 205
COc1cc(N2N=C3c4ccc(C(=O)O)cc4CC[C@@H]3[C@@H]2C2CCCC2)ccc1C#N [Example 26, (3S,3aR)-2-(4-cyano-3-methoxyphenyl)-3-cyclopentyl-3,3a,4,5-tetrahydro-2H-benzo[g]indazole-7-carboxylic acid] | 13
Cc1cc(N2N=C3c4ccc(C(=O)O)cc4CC[C@@H]3[C@@H]2C2CCCC2)ccc1C#N (single isomer, unassigned) [Example 22] | 4
N#Cc1ccc(N2N=C3c4ccc(C(=O)O)cc4CC[C@H]3[C@H]2C2CCCC2)cc1 [Example 20, (3R,3aS)-2-(4-cyanophenyl)-3-cyclopentyl-3,3a,4,5-tetrahydro-2H-benzo[g]indazole-7-carboxylic acid] | 2880
Cc1cc(N2N=C3c4ccc(C(=O)O)cc4OCC3C2C2CCCC2)ccc1C#N (racemic) [Example 61, 2-(4-cyano-3-methylphenyl)-3-cyclopentyl-2,3,3a,4-tetrahydrochromeno[4,3-c]pyrazole-7-carboxylic acid] | 39
N#Cc1ccc(N2N=C3c4ccc(C(=O)O)cc4OC[C@H]3[C@H]2c2ccc(F)cc2)cc1Cl [Example 57, (3S,3aS)-2-(3-chloro-4-cyanophenyl)-3-(4-fluorophenyl)-2,3,3a,4-tetrahydrochromeno[4,3-c]pyrazole-7-carboxylic acid] | 3510

Results, then the compound that gave them:

IC50 [nM] | Compound
312 | N#Cc1ccc(N2N=C3c4ccc(C(=O)NCCCC(=O)O)cc4CC[C@@H]3[C@@H]2c2ccc(F)cc2)cc1Cl (racemic) [Example 106, (±)-4-((3RS,3aRS)-2-(3-chloro-4-cyanophenyl)-3-(4-fluorophenyl)-3,3a,4,5-tetrahydro-2H-benzo[g]indazole-7-carboxamido)butanoic acid]
13 | Cc1cc(N2N=C3c4ccc(C(=O)O)cc4OC[C@@H]3[C@@H]2C2=CCCC2)ccc1C#N (racemic) [Example 77, (±)-(3RS,3aRS)-2-(4-cyano-3-methylphenyl)-3-cyclopentenyl-2,3,3a,4-tetrahydrochromeno[4,3-c]pyrazole-7-carboxylic acid]
86 | N#Cc1ccc(N2N=C3c4ccc(O)cc4CCC3C2c2ccc(F)cc2)cc1Cl (racemic) [Example 86, 2-chloro-4-(-3-(4-fluorophenyl)-7-hydroxy-3,3a,4,5-tetrahydrobenzo[g]indazol-2-yl)benzonitrile]
995 | CS(=O)(=O)NC(=O)c1ccc2c(c1)CC[C@H]1C2=NN(c2ccc(C#N)c(Cl)c2)[C@H]1c1ccc(F)cc1 (racemic) [Example 113, (±)-(3RS,3aRS)-2-(3-chloro-4-cyanophenyl)-3-(4-fluorophenyl)-N-(methylsulfonyl)-3,3a,4,5-tetrahydro-2H-benzo[g]indazole-7-carboxamide]
> 1000 | N#Cc1ccc(N2N=C3c4ccc(C(=O)NCC(=O)NCC(=O)O)cc4CC[C@H]3[C@@H]2c2ccc(F)cc2)cc1Cl (racemic) [Example 108, (±)-2-(2-((3RS,3aSR)-2-(3-chloro-4-cyanophenyl)-3-(4-fluorophenyl)-3,3a,4,5-tetrahydro-2H-benzo[g]indazole-7-carboxamido)acetamido)acetic acid]
113 | N#Cc1ccc(N2N=C3c4ccc(C(=O)NCCCCCC(=O)O)cc4CC[C@@H]3[C@@H]2c2ccc(F)cc2)cc1Cl (racemic) [Example 103, (±)-6-((3RS,3aRS)-2-(3-chloro-4-cyanophenyl)-3-(4-fluorophenyl)-3,3a,4,5-tetrahydro-2H-benzo[g]indazole-7-carboxamido)hexanoic acid]
3 | Cc1ccc([C@H]2[C@H]3CCc4cc(C(=O)NCCS(C)(=O)=O)ccc4C3=NN2c2ccc(C#N)c(Cl)c2)o1 [Example 117, (3R,3aR)-2-(3-chloro-4-cyanophenyl)-3-(5-methyl-2-furyl)-N-[2-(methylsulfonyl)ethyl]-3,3a,4,5-tetrahydro-2H-benzo[g]indazole-7-carboxamide]
77 | N#Cc1ccc(N2N=C3c4ccc(O)cc4CCC3C2c2ccc(F)cc2)cc1C(F)(F)F (racemic) [Example 83]
711 | Cc1cc(N2N=C3c4ccc(C(=O)O)cc4OCC3C2C2CC2)ccc1C#N (racemic) [Example 75, 2-(4-cyano-3-methylphenyl)-3-cyclopropyl-2,3,3a,4-tetrahydrochromeno[4,3-c]pyrazole-7-carboxylic acid]
57 | N#Cc1ccc(N2N=C3c4ccc(C(=O)NCCN5CCCC5)cc4CC[C@@H]3[C@@H]2c2ccc(F)cc2)cc1Cl (racemic) [Example 111, (±)-(3RS,3aRS)-2-(3-chloro-4-cyanophenyl)-3-(4-fluorophenyl)-N-(2-(pyrrolidin-1-yl)ethyl)-3,3a,4,5-tetrahydro-2H-benzo[g] indazole-7-carboxamide]
> 1000 | N#Cc1ccc(N2N=C3c4ccc(O)cc4CC[C@H]3[C@H]2c2ccc(F)cc2)cc1Cl [Example 88, 2-chloro-4-((3S,3aS)-3-(4-fluorophenyl)-7-hydroxy-3,3a,4,5-tetrahydrobenzo[g]indazol-2-yl)benzonitrile]
